# Laboratory results as given in patent US20250163066A1, “PROTACs of MALT1” (TEGID THERAPEUTICS, INC., priority 2022, published 2025).
# Biological target: MALT1 (Homo sapiens (Human), UniProt Q9UDY8)
# Assay: MALT1 enzymatic activity inhibition (fluorescence, Ac-LRSR-AMC substrate)
# Type: biochemical
# Settings: recombinant MALT1 1.5 ng/μl, Ac-LRSR-AMC 1 μM
# Method in brief: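 Recombinant human MALT1 (1.5 ng/μl final) preincubated 10 min at rt with compounds in 50 mM HEPES pH 7.2-7.4, 100 mM NaCl, 900 mM sodium citrate, 10 mM DTT; 1 μM Ac-LRSR-AMC then added. AMC fluorescence read at start and after 30 min 37 °C plus 30 min rt; difference gives signal, % inhibition fitted to IC50.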
# MALT1, sequence (Q9UDY8 whole entry): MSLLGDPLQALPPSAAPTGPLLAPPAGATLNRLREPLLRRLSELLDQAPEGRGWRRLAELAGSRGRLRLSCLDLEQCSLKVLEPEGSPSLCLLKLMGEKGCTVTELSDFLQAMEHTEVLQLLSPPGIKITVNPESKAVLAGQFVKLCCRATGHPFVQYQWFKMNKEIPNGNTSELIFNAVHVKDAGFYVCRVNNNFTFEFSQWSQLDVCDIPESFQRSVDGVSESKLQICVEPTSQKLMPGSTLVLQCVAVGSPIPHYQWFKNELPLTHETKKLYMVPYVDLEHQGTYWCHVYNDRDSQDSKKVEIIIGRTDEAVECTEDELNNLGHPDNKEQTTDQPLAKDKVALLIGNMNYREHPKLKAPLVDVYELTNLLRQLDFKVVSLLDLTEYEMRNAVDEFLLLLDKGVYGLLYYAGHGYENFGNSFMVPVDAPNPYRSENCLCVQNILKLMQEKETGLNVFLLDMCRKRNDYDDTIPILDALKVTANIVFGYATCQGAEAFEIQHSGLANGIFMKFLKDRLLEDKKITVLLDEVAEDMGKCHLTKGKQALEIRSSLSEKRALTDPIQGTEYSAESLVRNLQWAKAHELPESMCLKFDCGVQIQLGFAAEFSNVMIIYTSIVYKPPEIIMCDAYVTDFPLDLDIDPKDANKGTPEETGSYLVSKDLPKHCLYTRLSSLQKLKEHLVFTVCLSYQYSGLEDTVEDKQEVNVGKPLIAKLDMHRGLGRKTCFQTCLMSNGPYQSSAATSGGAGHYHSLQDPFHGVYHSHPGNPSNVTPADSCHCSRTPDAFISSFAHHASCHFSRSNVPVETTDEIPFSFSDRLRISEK
row,EC50,SMILES
1,0.2 to 0.5 µM,"Cc1cc(NC(=O)Nc2cnc3ccnn3c2C2CCCC2)cnc1-c1noc(CCCCCC(=O)N2CCN(c3ccc4c(c3)CN(C3CCC(=O)NC3=O)C4=O)CC2)n1 (stereo not drawn) [Compound 4, 1-(7-cyclopentylpyrazolo[1,5-a]pyrimidin-6-yl)-3-[6-[5-[6-[4-[2-(2,6-dioxo-3-piperidyl)-1-oxo-isoindolin-5-yl]piperazin-1-yl]-6-oxo-hexyl]-1,2,4-oxadiazol-3-yl]-5-methyl-3-pyridyl]urea]"
2,≤ 0.2 µM,"O=C1CCC(N2Cc3cc(N4CCN(C(=O)CCCc5nc(-c6ncc(NC(=O)Nc7cnc8ccnn8c7C7CCCC7)cc6Cl)no5)CC4)ccc3C2=O)C(=O)N1 (stereo not drawn) [Compound 71, 1-[5-chloro-6-[5-[4-[4-[2-(2,6-dioxo-3-piperidyl)-1-oxo-isoindolin-5-yl]piperazin-1-yl]-4-oxo-butyl]-1,2,4-oxadiazol-3-yl]-3-pyridyl]-3-(7-cyclopentylpyrazolo[1,5-a]pyrimidin-6-yl)urea]"
3,≤ 0.2 µM,"Cc1cc(NC(=O)Nc2cnc3ccnn3c2C2CCCO2)cnc1-c1noc(CCCN2CCN(c3ccc4c(c3)CN(C3CCC(=O)NC3=O)C4=O)CC2)n1 (stereo not drawn) [Compound 62, 1-[6-[5-[3-[4-[2-(2,6-dioxo-3-piperidyl)-1-oxo-isoindolin-5-yl]piperazin-1-yl]propyl]-1,2,4-oxadiazol-3-yl]-5-methyl-3-pyridyl]-3-(7-tetrahydrofuran-2-ylpyrazolo[1,5-a]pyrimidin-6-yl)urea]"
4,1 to 5 µM,"O=C(CCOCCN1CCN(c2ccc3c(c2)CN(C2CCC(=O)NC2=O)C3=O)CC1)NCCOc1ncc(Cl)cc1NC(=O)Nc1cn2ccnc2nc1C1CCCCC1 (stereo not drawn) [Compound 50, N-[2-[[5-chloro-3-[(7-cyclohexylimidazo[1,2-a]pyrimidin-6-yl)carbamoylamino]-2-pyridyl]oxy]ethyl]-3-[2-[4-[2-(2,6-dioxo-3-piperidyl)-1-oxo-isoindolin-5-yl]piperazin-1-yl]ethoxy]propanamide]"
5,≤ 0.2 µM,"O=C1CCC(N2Cc3cc(N4CCN(CCCCCCc5nc(-c6ncc(NC(=O)Nc7cnc8ccnn8c7C7CCCC7)cc6C(F)(F)F)no5)CC4)ccc3C2=O)C(=O)N1 (stereo not drawn) [Compound 133, 1-(7-cyclopentylpyrazolo[1,5-a]pyrimidin-6-yl)-3-[6-[5-[6-[4-[2-(2,6-dioxo-3-piperidyl)-1-oxo-isoindolin-5-yl]piperazin-1-yl]hexyl]-1,2,4-oxadiazol-3-yl]-5-(trifluoromethyl)-3-pyridyl]urea]"
6,≤ 0.2 µM,"CC(C)c1c(NC(=O)Nc2cnc(-c3noc(CCCCCC(=O)N4CCN(c5ccc6c(c5)CN(C5CCC(=O)NC5=O)C6=O)CC4)n3)c(Cl)c2)cnc2ccnn12 (stereo not drawn) [Compound 66, 1-[5-chloro-6-[5-[6-[4-[2-(2,6-dioxo-3-piperidyl)-1-oxo-isoindolin-5-yl]piperazin-1-yl]-6-oxo-hexyl]-1,2,4-oxadiazol-3-yl]-3-pyridyl]-3-(7-isopropylpyrazolo[1,5-a]pyrimidin-6-yl)urea]"
7,≤ 0.2 µM,"Cc1cc(NC(=O)Nc2cnc3ccnn3c2C2CC2)cnc1-c1noc(CCCCC(=O)N2CCN(c3ccc4c(c3)CN(C3CCC(=O)NC3=O)C4=O)CC2)n1 (stereo not drawn) [Compound 169, 1-(7-cyclopropylpyrazolo[1,5-a]pyrimidin-6-yl)-3-[6-[5-[5-[4-[2-(2,6-dioxo-3-piperidyl)-1-oxo-isoindolin-5-yl]piperazin-1-yl]-5-oxo-pentyl]-1,2,4-oxadiazol-3-yl]-5-methyl-3-pyridyl]urea]"
8,1 to 5 µM,O=C(CCOCCN1CCN(c2ccc3c(c2)CN(C2CCC(=O)NC2=O)C3=O)CC1)NCCOc1ncc(Cl)cc1NC(=O)Nc1cnc2ccnn2c1C1CCCCC1 (stereo not drawn) [Compound 44]
9,0.5 to 1 µM,"O=C(CCOCCOCCN1CCN(c2ccc3c(c2)CN(C2CCC(=O)NC2=O)C3=O)CC1)NCCOc1ncc(Cl)cc1NC(=O)Nc1cnc2ccnn2c1C1CCOCC1 (stereo not drawn) [Compound 41, N-[2-[[5-chloro-3-[(7-tetrahydropyran-4-ylpyrazolo[1,5-a]pyrimidin-6-yl)carbamoylamino]-2-pyridyl]oxy]ethyl]-3-[2-[2-[4-[2-(2,6-dioxo-3-piperidyl)-1-oxo-isoindolin-5-yl]piperazin-1-yl]ethoxy]ethoxy]propanamide]"
10,≤ 0.2 µM,"Cc1cc(NC(=O)Nc2cnc3ccnn3c2C(C)C)cnc1-c1noc(CCCC(=O)N2CCN(c3ccc4c(c3)CN(C3CCC(=O)N(COC(=O)C(C)(C)C)C3=O)C4=O)CC2)n1 (stereo not drawn) [Compound 149, [3-[5-[4-[4-[3-[5-[(7-isopropylpyrazolo[1,5-a]pyrimidin-6-yl)carbamoylamino]-3-methyl-2-pyridyl]-1,2,4-oxadiazol-5-yl]butanoyl]piperazin-1-yl]-1-oxo-isoindolin-2-yl]-2,6-dioxo-1-piperidyl]methyl 2,2-dimethylpropanoate]"
11,0.2 to 0.5 µM,"Cc1cc(NC(=O)Nc2cnc3ccnn3c2C2CCCCC2)cnc1-c1noc(CCCCCN2CCN(c3ccc4c(c3)CN(C3CCC(=O)NC3=O)C4=O)CC2)n1 (stereo not drawn) [Compound 132, 1-(7-cyclohexylpyrazolo[1,5-a]pyrimidin-6-yl)-3-[6-[5-[5-[4-[2-(2,6-dioxo-3-piperidyl)-1-oxo-isoindolin-5-yl]piperazin-1-yl]pentyl]-1,2,4-oxadiazol-3-yl]-5-methyl-3-pyridyl]urea]"
12,≤ 0.2 µM,"CC(C)c1c(NC(=O)Nc2cnc(-c3noc(CCCC(=O)N4CCN(c5ccc6c(c5)CN(C5CCC(=O)N(C)C5=O)C6=O)CC4)n3)c(Cl)c2)cnc2ccnn12 (stereo not drawn) [Compound 135, 1-[5-chloro-6-[5-[4-[4-[2-(1-methyl-2,6-dioxo-3-piperidyl)-1-oxo-isoindolin-5-yl]piperazin-1-yl]-4-oxo-butyl]-1,2,4-oxadiazol-3-yl]-3-pyridyl]-3-(7-isopropylpyrazolo[1,5-a]pyrimidin-6-yl)urea]"
13,0.2 to 0.5 µM,"Cc1c(NC(=O)Nc2cnc(-c3noc(CCCCCC(=O)N4CCN(c5ccc6c(c5)CN(C5CCC(=O)NC5=O)C6=O)CC4)n3)c(Cl)c2)cnc2ccnn12 (stereo not drawn) [Compound 65, 1-[5-chloro-6-[5-[6-[4-[2-(2,6-dioxo-3-piperidyl)-1-oxo-isoindolin-5-yl]piperazin-1-yl]-6-oxo-hexyl]-1,2,4-oxadiazol-3-yl]-3-pyridyl]-3-(7-methylpyrazolo[1,5-a]pyrimidin-6-yl)urea]"
14,≤ 0.2 µM,"O=C1CCC(N2Cc3cc(N4CCN(CCCCc5nc(-c6ncc(NC(=O)Nc7cnc8ccnn8c7C7CCCC7)cc6Cl)no5)CC4)ccc3C2=O)C(=O)N1 (stereo not drawn) [Compound 75, 1-[5-chloro-6-[5-[4-[4-[2-(2,6-dioxo-3-piperidyl)-1-oxo-isoindolin-5-yl]piperazin-1-yl]butyl]-1,2,4-oxadiazol-3-yl]-3-pyridyl]-3-(7-cyclopentylpyrazolo[1,5-a]pyrimidin-6-yl)urea]"
15,> 5 µM,"O=C(CCOCCOCCN1CCN(c2ccc3c(c2)CN(C2CCC(=O)NC2=O)C3=O)CC1)NCCNC(=O)C1CCCN1C(=O)Nc1cnc2ccnn2c1C1CCCC1 (stereo not drawn) [Compound 48, N1-(7-cyclopentylpyrazolo[1,5-a]pyrimidin-6-yl)-N2-[2-[3-[2-[2-[4-[2-(2,6-dioxo-3-piperidyl)-1-oxo-isoindolin-5-yl]piperazin-1-yl]ethoxy]ethoxy]propanoylamino]ethyl]pyrrolidine-1,2-dicarboxamide]"
